Patent publication US8729048B2, “Methods and materials for assessing responsiveness to PARP inhibitors and platinating agents” (Mayo Foundation for Medical Education and Research, priority 2011, dated 2014)

What was measured:
Assay type in all cases: cell-based
[1] = system: DNA-PK substrates (DNA-PKcs Thr2609, Histone H2AX Ser139) in PEO1 cells; test: Immunoblotting for phosphorylation of DNA-PK substrates; settings: 72 hours, with 20 μM ABT-888, 500 nM DNA-PKi or 5 μM ATMi
Procedure: FIG. 2. DNA-PK is activated following PARP inhibitor exposure in PEO1 cells. (A) Western blots for poly(ADP-ribose) polymer (pADPr) and phosphorylation of DNA-PK substrates (DNA-PKcs autophosphorylation at Thr^2609 and Histone H2AX at Ser^139) in PEO1 cells following 72 hours exposure to increasing concentrations of ABT-888 (0, 0.625, 1.25, 2.5, 5, 10, 20, and 40 μM). Hsp90, total DNA-PKcs, and Histone H1 are used as loading controls. (B) Phosphorylation of DNA-PK substrates after treatment for 72 hours with diluent (0.2% DMSO, lanes 1 and 4), 500 nM DNA-PK inhibitor AZ12594248 (DNA-PKi, lanes 2 and 5), or 5 μM ATM inhibitor KU55933 (ATMi, lanes 3 and 6) alone (lanes 1-3) or in combination with 20 μM ABT-888 (lanes 4-6). (C) Quantitation of cells positive for phospho-H2AX foci in PEO1 and PEO4 cells, following treatment with DMSO, 500 nM DNA-PKi, 20 μM ABT-888 (ABT), ABT-888 and DNA-PKi, 50 μM Etoposide (Etop), or 5 Gy ionizing radiation (IR). Cells were exposed to ABT-888 and/or DNA-PKi for 72 hours, etoposide for 1 hour, or allowed to recover for 1 hour after IR. Results are reported as mean±SEM of 3 independent experiments. (D) Confocal images of PEO1 cells treated as in […]. Phospho-Ser^139-H2AX is shown in green, phospho-Thr^2609-DNA-PKcs in red, and Hoechst 33258 in blue.
Cells were washed twice with calcium- and magnesium-free Dulbecco's phosphate-buffered saline (PBS) and solubilized in 6 M guanidine hydrochloride containing 250 mM Tris-HCl, pH 8.5 at 20° C., 10 mM EDTA, 1% (v/v) 2-mercaptoethanol, and 1 mM freshly added phenylmethylsulfonyl fluoride. After preparation for electrophoresis as described elsewhere (Kaufmann et al., Blood, 89:2098-2104 (1997)), aliquots containing 50 μg of protein (determined by the bicinchoninic acid method—S10) were separated on SDS-polyacrylamide gels containing 8% (w/v) acrylamide, electrophoretically transferred to nitrocellulose, and probed with immunological reagents as described elsewhere (Kaufmann, Anal. Biochem., 296:283-286 (2001)). […]

[2] = system: BRCA2-deficient PEO1 cells; test: Clonogenic assay, PEO1
Procedure: (§1) FIG. 5. NHEJ is a major contributor to PARP inhibitor effects in BRCA2-deficient cells. (A) Western blots showing knockdown of Ku80 in PEO1 and PEO4 cells. (B) Clonogenic survival of PEO1 and PEO4 cells from (A), which were treated with the indicated ABT-888 concentration for 72 hours, washed, and allowed to form colonies. (C) Western blots following treatment with siRNA targeting luciferase (control), Ku80, PARP1, or both Ku80 and PARP1. (D) Clonogenic viability of PEO 1 and PEO4 cells from (C). Following knockdown, cells were plated onto triplicate plates and allowed to form colonies. (E) Clonogenic survival of PEO1 cells following Artemis knockdown. After treatment with the indicated siRNA, plates were treated with indicated concentration of ABT-888 for 72 hours, washed, and allowed to form colonies. Inset, Western blots showing knockdown using luciferase (control) or Artemis siRNAs in PEO1 cells. (F) Clonogenic survival of PEO1 and PEO4 cells treated for 72 hours with ABT-888 in combination with diluent or 500 nM DNA-PKi. All results are reported as means of triplicate plates±SEM, and are representative of 3 independent experiments.
FIG. 13. DNA-PK inhibition diminishes the lethality of multiple PARP inhibitors in PEO1 cells. (A) Representative clonogenic plates after PEO1 cells were treated with ABT-888 (0, 5, or 20 μM) with or without 500 nM DNA-PKi. (B, C) Bar graphs comparing clonogenic survival of PEO1 cells exposed to two PARP inhibitors with or without 500 nM DNA-PKi. The PARP inhibitors used for these assays are ABT-888 (B) and AZD2281/olaparib (C). Results are reported as mean±SEM of triplicate plates.
FIG. 18. Artemis knockdown confers resistance to PARP inhibition and cisplatin in BRCA2-deficient/mutant cells. Clonogenic survival assays of PEO1 shRNA lines continuously exposed to ABT-888 (A) or cisplatin (B), or exposed to ionizing radiation (C). (D-F) Clonogenic survival assays of CAPAN1 shRNA lines exposed to ABT-888 (D), cisplatin (E), or exposed to ionizing radiation (F).
(§2) Colony formation assays were performed on siRNA-transfected PEO1 and PEO4 cells 48 hours after the second transfection. Cells were trypsinized and plated at 750 cells/plate in triplicate 60-mm dishes containing medium A, allowed to grow 10-14 days, and stained with Coomassie Brilliant Blue. Colonies containing ≧50 cells were scored manually. To assess methyl methanesulfonate (MMS) sensitivity, PEO1 or PEO4 cells were incubated for 48 hours after the second siRNA treatment, plated onto 60-mm dishes, allowed to adhere for 4 hours, exposed to the indicated concentration of MMS (Sigma-Aldrich) for 1 hour, washed with sterile RPMI 1640, and allowed to grow into colonies in medium A. For drug treatment, cells (without siRNA) were allowed to adhere for 4-6 hours, then treated with the indicated concentrations of ABT-888 and/or AZ12594248 for 72 hours. Following drug treatment, cells were washed with drug-free RPMI 1640, cultured for 10-14 days in medium A, and stained. For HCC1937 and HCC1937/BRCA1 cells, a similar procedure was used with several changes: 1000 cells were plated in medium B, and treatment was continuous for 16-20 days. M059J and M059J+DNA-PKcs were plated at 1000 cells per plate in medium C and treated for 48 hours. GM16666 and 16667 were plated at 1000 cells per plate in medium D and treated for 48 hours.

[3] = system: BRCA2-positive PEO4 cells; test: Clonogenic assay, PEO4; settings: XRCC1 siRNA, 1 hour exposure
Procedure: as §1
as §2, with “Following drug treatment, cells were washed with drug-free RPMI 1640, cultured for 10-14 days in medium A, and stained. For HCC1937 and HCC1937/BRCA1 cells, a similar procedure was used with several changes: 1000 cells were plated in medium B, and treatment was continuous for 16-20 days. M059J and M059J+DNA-PKcs were plated at 1000 cells per plate in medium C and treated for 48 hours. GM16666 and 16667 were plated at 1000 cells per plate in medium D and treated for 48 hours.” left out

O=c1cc(-c2cccc3c2Sc2ccccc2S3)oc(N2CCOCC2)c1 [KU55933]
effect on ABT-888-induced phosphorylation of DNA-PKcs and H2AX [1]: did not

N.N.[Cl][Pt][Cl] [cisplatin]
clonogenic sensitivity after stable Artemis knockdown ([2]; PEO1 shRNA lines, continuous exposure): conferred resistance

COS(C)(=O)=O [methane methylsulfonate, methyl methanesulfonate]
clonogenic sensitivity after XRCC1 knockdown ([2]; PEO1 cells, XRCC1 siRNA, 1 hour exposure): sensitized
clonogenic sensitivity after XRCC1 knockdown [3]: sensitized
